Assay results reported in PubChem BioAssay AID1963422 (Molecular Pharmacology Branch, DTP, NCI, 2024).

System: 463943-066-T-J2-PDC complex spheroid growth
Assay: Anticancer human tumor 463943-066-T-J2-PDC patient-derived colon adenocarcinoma cell line growth inhibition [Asc]
Details: for IC50: curve of first compound; for viability, T/C: stronger effect = lower value
Procedure, shortened: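 Stromal components (HUVEC and hMSC) are co-assembled with the cancer cells into multicellular spheroids. Drugs are then added singly or paired, at concentrations falling by half-log increments from a clinically achievable maximum, capped at 10 microM without known Cmax.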

[1] = second compound 0.0316 µM, first compound 0.0316 µM
[2] = second compound 0.0316 µM, first compound 0.1 µM
[3] = second compound 0.1 µM, first compound 0.0316 µM
[4] = second compound 0.1 µM, first compound 0.1 µM
[5] = second compound 0.316 µM, first compound 0.0316 µM
[6] = second compound 0.316 µM, first compound 0.1 µM
[7] = second compound 1 µM, first compound 0.0316 µM
[8] = second compound 1 µM, first compound 0.1 µM
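Also: compound exposure lasted 7 days.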
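For viability, T/C in this document: 100% = DMSO vehicle control wells.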

What does the source list for `Cn1ncnc1[C@H]1c2n[nH]c(=O)c3cc(F)cc(c23)N[C@@H]1c1ccc(F)cc1` + CNC(C)C(=O)NC1CN(S(=O)(=O)c2cccc(S(=O)(=O)N3CCC4CCC(C(=O)NC(c5ccccc5)c5ccccc5)N4C(=O)C(NC(=O)C(C)NC)C3)c2)CCC2CCC(C(=O)NC(c3ccccc3)c3ccccc3)N2C1=O?
IC50 (second compound 0.00316 µM): > 0.1 µM; IC50 (second compound 0.01 µM): > 0.1 µM; IC50 (second compound 0.0316 µM): > 0.1 µM; IC50 (second compound 0.1 µM): > 0.1 µM; IC50 (second compound 0.316 µM): > 0.1 µM; IC50 (second compound 1 µM): > 0.1 µM; viability, T/C (second compound 0.00316 µM, first compound 0.000316 µM): 92.7%; viability, T/C (second compound 0.00316 µM, first compound 0.001 µM): 91.4%; viability, T/C (second compound 0.00316 µM, first compound 0.00316 µM): 94.3%; viability, T/C (second compound 0.00316 µM, first compound 0.01 µM): 94%; viability, T/C (second compound 0.00316 µM, first compound 0.0316 µM): 101%; viability, T/C (second compound 0.00316 µM, first compound 0.1 µM): 92.4%; viability, T/C (second compound 0.01 µM, first compound 0.000316 µM): 92.4%; viability, T/C (second compound 0.01 µM, first compound 0.001 µM): 89.9%; viability, T/C (second compound 0.01 µM, first compound 0.00316 µM): 94.3%; viability, T/C (second compound 0.01 µM, first compound 0.01 µM): 94.8%; viability, T/C (second compound 0.01 µM, first compound 0.0316 µM): 97.3%; viability, T/C (second compound 0.01 µM, first compound 0.1 µM): 87.2%; viability, T/C (second compound 0.0316 µM, first compound 0.000316 µM): 91.6%; viability, T/C (second compound 0.0316 µM, first compound 0.001 µM): 97.8%; viability, T/C (second compound 0.0316 µM, first compound 0.00316 µM): 99.2%; viability, T/C (second compound 0.0316 µM, first compound 0.01 µM): 94%; viability, T/C [1]: 103%; viability, T/C [2]: 85.6%; viability, T/C (second compound 0.1 µM, first compound 0.000316 µM): 104%; viability, T/C (second compound 0.1 µM, first compound 0.001 µM): 93.9%; viability, T/C (second compound 0.1 µM, first compound 0.00316 µM): 100%; viability, T/C (second compound 0.1 µM, first compound 0.01 µM): 91.9%; viability, T/C [3]: 105%; viability, T/C [4]: 93.9%; viability, T/C (second compound 0.316 µM, first compound 0.000316 µM): 98.3%; viability, T/C (second compound 0.316 µM, first compound 0.001 µM): 93%; viability, T/C (second compound 0.316 µM, first compound 0.00316 µM): 89.4%; viability, T/C (second compound 0.316 µM, first compound 0.01 µM): 93%; viability, T/C [5]: 99.7%; viability, T/C [6]: 85.4%; viability, T/C (second compound 1 µM, first compound 0.000316 µM): 89.9%; viability, T/C (second compound 1 µM, first compound 0.001 µM): 86.8%; viability, T/C (second compound 1 µM, first compound 0.00316 µM): 84.2%; viability, T/C (second compound 1 µM, first compound 0.01 µM): 87.5%; viability, T/C [7]: 80.8%; viability, T/C [8]: 83.2%

What does the source list for `O=C(c1cc(Cc2n[nH]c(=O)c3ccccc23)ccc1F)N1CCN(C(=O)C2CC2)CC1` + Cc1c(S(C)(=O)=O)c(-c2cc(F)cc(N3CCN(c4ccc(NS(=O)(=O)c5ccc(NC(CCN6CCC(C(=O)OCCCP(=O)(O)O)CC6)CSc6ccccc6)c(S(=O)(=O)C(F)(F)F)c5)cc4)CC3)c2)c(-c2ccc(Cl)cc2)n1C(C)C?
IC50 (second compound 0.0316 µM): > 10 µM; IC50 (second compound 0.1 µM): > 10 µM; IC50 (second compound 0.316 µM): > 10 µM; IC50 (second compound 1 µM): > 10 µM; IC50 (second compound 3.16 µM): > 10 µM; IC50 (second compound 10 µM): 1.16 µM; viability, T/C [1]: 95.1%; viability, T/C [2]: 90%; viability, T/C (second compound 0.0316 µM, first compound 0.316 µM): 93%; viability, T/C (second compound 0.0316 µM, first compound 1 µM): 97.3%; viability, T/C (second compound 0.0316 µM, first compound 3.16 µM): 93.3%; viability, T/C (second compound 0.0316 µM, first compound 10 µM): 86.9%; viability, T/C [3]: 98.3%; viability, T/C [4]: 86.5%; viability, T/C (second compound 0.1 µM, first compound 0.316 µM): 94.1%; viability, T/C (second compound 0.1 µM, first compound 1 µM): 91.5%; viability, T/C (second compound 0.1 µM, first compound 3.16 µM): 94.6%; viability, T/C (second compound 0.1 µM, first compound 10 µM): 81.7%; viability, T/C [5]: 91.5%; viability, T/C [6]: 90.3%; viability, T/C (second compound 0.316 µM, first compound 0.316 µM): 87.2%; viability, T/C (second compound 0.316 µM, first compound 1 µM): 85.8%; viability, T/C (second compound 0.316 µM, first compound 3.16 µM): 88.7%; viability, T/C (second compound 0.316 µM, first compound 10 µM): 77.1%; viability, T/C [7]: 79.4%; viability, T/C [8]: 76.2%; viability, T/C (second compound 1 µM, first compound 0.316 µM): 81.4%; viability, T/C (second compound 1 µM, first compound 1 µM): 79.3%; viability, T/C (second compound 1 µM, first compound 3.16 µM): 73.3%; viability, T/C (second compound 1 µM, first compound 10 µM): 74.8%; viability, T/C (second compound 3.16 µM, first compound 0.0316 µM): 65.4%; viability, T/C (second compound 3.16 µM, first compound 0.1 µM): 59.8%; viability, T/C (second compound 3.16 µM, first compound 0.316 µM): 60.6%; viability, T/C (second compound 3.16 µM, first compound 1 µM): 67.2%; viability, T/C (second compound 3.16 µM, first compound 3.16 µM): 62.8%; viability, T/C (second compound 3.16 µM, first compound 10 µM): 54.9%; viability, T/C (second compound 10 µM, first compound 0.0316 µM): 54.8%; viability, T/C (second compound 10 µM, first compound 0.1 µM): 48.4%; viability, T/C (second compound 10 µM, first compound 0.316 µM): 50.3%; viability, T/C (second compound 10 µM, first compound 1 µM): 51.8%; viability, T/C (second compound 10 µM, first compound 3.16 µM): 49.4%; viability, T/C (second compound 10 µM, first compound 10 µM): 48.2%
